Experimental data from PubChem BioAssay (NCI).
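1) Cells in 96-well plates. 2) Compound, 48 h, 5 concentrations. 3) Linear interpolation between surrounding doses. 4) Unreached endpoint = highest concentration. Definition used: TGI = concentration required for complete inhibition of growth.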

Key:
Experiment in all cases: NCI tumour cell line growth inhibition, 48 h
CCRF-CEM leukemia = tested on: CCRF-CEM leukemia
SNB-75 CNS = tested on: SNB-75 CNS
OVCAR-5 ovarian = tested on: OVCAR-5 ovarian
SK-MEL-2 melanoma = tested on: SK-MEL-2 melanoma
MOLT-4 leukemia = tested on: MOLT-4 leukemia
OVCAR-4 ovarian = tested on: OVCAR-4 ovarian
SNB-19 CNS = tested on: SNB-19 CNS
A549 NSCLC = tested on: A549 NSCLC
LOX IMVI melanoma = tested on: LOX IMVI melanoma
COLO 205 colon = tested on: COLO 205 colon
SW-620 colon = tested on: SW-620 colon
HOP-92 NSCLC = tested on: HOP-92 NSCLC
M14 melanoma = tested on: M14 melanoma
SK-MEL-28 melanoma = tested on: SK-MEL-28 melanoma
BT-549 breast = tested on: BT-549 breast
EKVX NSCLC = tested on: EKVX NSCLC
HCT-116 colon = tested on: HCT-116 colon
SK-MEL-5 melanoma = tested on: SK-MEL-5 melanoma
IGROV1 ovarian = tested on: IGROV1 ovarian
NCI/ADR-RES ovarian = tested on: NCI/ADR-RES ovarian
A498 renal = tested on: A498 renal
NCI-H522 lung = tested on: NCI-H522 lung
HS 578T breast = tested on: HS 578T breast
UACC-257 melanoma = tested on: UACC-257 melanoma
HCT-15 colon = tested on: HCT-15 colon
MCF7 breast = tested on: MCF7 breast
786-0 renal = tested on: 786-0 renal
ACHN renal = tested on: ACHN renal
MDA-MB-435 = tested on: MDA-MB-435
SR leukemia = tested on: SR leukemia
DU-145 prostate = tested on: DU-145 prostate
CAKI-1 renal = tested on: CAKI-1 renal
NCI-H23 lung = tested on: NCI-H23 lung
OVCAR-3 ovarian = tested on: OVCAR-3 ovarian
TK-10 renal = tested on: TK-10 renal
SF-268 CNS = tested on: SF-268 CNS
SK-OV-3 ovarian = tested on: SK-OV-3 ovarian
RPMI-8226 leukemia = tested on: RPMI-8226 leukemia
UO-31 renal = tested on: UO-31 renal
RXF 393 renal = tested on: RXF 393 renal
KM12 colon = tested on: KM12 colon
HT29 colon = tested on: HT29 colon
HL-60(TB) leukemia = tested on: HL-60(TB) leukemia
SF-295 CNS = tested on: SF-295 CNS
NCI-H226 lung = tested on: NCI-H226 lung
OVCAR-8 ovarian = tested on: OVCAR-8 ovarian
MALME-3M melanoma = tested on: MALME-3M melanoma
SF-539 CNS = tested on: SF-539 CNS
SN12C renal = tested on: SN12C renal
K-562 leukemia = tested on: K-562 leukemia
PC-3 prostate = tested on: PC-3 prostate
T-47D breast = tested on: T-47D breast
HOP-62 NSCLC = tested on: HOP-62 NSCLC
MDA-N = tested on: MDA-N
U251 CNS = tested on: U251 CNS
HCC-2998 colon = tested on: HCC-2998 colon
MDA-MB-231 breast = tested on: MDA-MB-231 breast
NCI-H460 lung = tested on: NCI-H460 lung
M19-MEL melanoma = tested on: M19-MEL melanoma
UACC-62 melanoma = tested on: UACC-62 melanoma
HOP-18 NSCLC = tested on: HOP-18 NSCLC
DMS 273 small cell lung = tested on: DMS 273 small cell lung
DLD-1 colon = tested on: DLD-1 colon
LXFL 529 NSCLC = tested on: LXFL 529 NSCLC
DMS 114 small cell lung = tested on: DMS 114 small cell lung
SNB-78 CNS = tested on: SNB-78 CNS

Oc1ccc(Cn2c(-c3ccc(O)c(O)c3)nc3ccccc32)cc1O
TGI (CCRF-CEM leukemia): 32.8 µM
TGI (SNB-75 CNS): 39.4 µM
TGI (OVCAR-5 ovarian): > 100 µM
TGI (SK-MEL-2 melanoma): 39 µM
TGI (MOLT-4 leukemia): 12.4 µM
TGI (OVCAR-4 ovarian): 54.1 µM
TGI (SNB-19 CNS): 83.4 µM
TGI (A549 NSCLC): 66.2 µM
TGI (LOX IMVI melanoma): 26 µM
TGI (COLO 205 colon): 31.1 µM
TGI (SW-620 colon): 42.1 µM
TGI (HOP-92 NSCLC): 41.9 µM
TGI (M14 melanoma): 42.2 µM
TGI (SK-MEL-28 melanoma): 78 µM
TGI (BT-549 breast): 51 µM
TGI (EKVX NSCLC): 75.7 µM
TGI (HCT-116 colon): 16.3 µM
TGI (SK-MEL-5 melanoma): 50.9 µM
TGI (IGROV1 ovarian): 66.4 µM
TGI (NCI/ADR-RES ovarian): > 100 µM
TGI (A498 renal): > 100 µM
TGI (NCI-H522 lung): 17.1 µM
TGI (HS 578T breast): 35.2 µM
TGI (UACC-257 melanoma): > 100 µM
TGI (HCT-15 colon): > 100 µM
TGI (MCF7 breast): > 100 µM
TGI (786-0 renal): 29 µM
TGI (ACHN renal): 60.2 µM
TGI (MDA-MB-435): 32 µM
TGI (SR leukemia): 18.2 µM
TGI (DU-145 prostate): 66.9 µM
TGI (CAKI-1 renal): 54.6 µM
TGI (NCI-H23 lung): 75.4 µM
TGI (OVCAR-3 ovarian): 41.3 µM
TGI (TK-10 renal): 38 µM
TGI (SF-268 CNS): > 100 µM
TGI (SK-OV-3 ovarian): 59.6 µM
TGI (RPMI-8226 leukemia): 46.1 µM
TGI (UO-31 renal): 47.3 µM
TGI (RXF 393 renal): > 100 µM
TGI (KM12 colon): 35 µM
TGI (HT29 colon): 84.7 µM
TGI (HL-60(TB) leukemia): 51.1 µM
TGI (SF-295 CNS): 68 µM
TGI (NCI-H226 lung): 22.4 µM
TGI (OVCAR-8 ovarian): 25.5 µM
TGI (MALME-3M melanoma): 41.4 µM
TGI (SF-539 CNS): 24.1 µM
TGI (SN12C renal): 40.6 µM
TGI (K-562 leukemia): 55.9 µM
TGI (PC-3 prostate): > 100 µM
TGI (T-47D breast): 45.1 µM
TGI (HOP-62 NSCLC): 38 µM
TGI (MDA-N): > 100 µM
TGI (U251 CNS): 47.1 µM
TGI (HCC-2998 colon): 27.3 µM
TGI (MDA-MB-231 breast): 43.3 µM
TGI (NCI-H460 lung): 63.4 µM

Cc1cc(O)cc2c1O[C@@]1(C)CCC3[C@@]4(C)CC[C@H](O)C(C)(C)C4CC[C@@]3(C)[C@H]1C2 (stereo partly specified)
TGI (CCRF-CEM leukemia): 7.08 µM
TGI (SNB-75 CNS): 11.8 µM
TGI (M19-MEL melanoma): 25 µM
TGI (MOLT-4 leukemia): 4 µM
TGI (A549 NSCLC): 19.6 µM
TGI (LOX IMVI melanoma): 20.6 µM
TGI (COLO 205 colon): 33.4 µM
TGI (SW-620 colon): 23.5 µM
TGI (HOP-92 NSCLC): 9.78 µM
TGI (M14 melanoma): 24.3 µM
TGI (SK-MEL-28 melanoma): 20.3 µM
TGI (EKVX NSCLC): 31.4 µM
TGI (HCT-116 colon): 16.1 µM
TGI (SK-MEL-5 melanoma): 19 µM
TGI (IGROV1 ovarian): 30.2 µM
TGI (A498 renal): 36.3 µM
TGI (NCI-H522 lung): 21.9 µM
TGI (UACC-257 melanoma): 29.2 µM
TGI (HCT-15 colon): 12.7 µM
TGI (786-0 renal): 4.72 µM
TGI (ACHN renal): 19 µM
TGI (UACC-62 melanoma): 21.9 µM
TGI (CAKI-1 renal): 20.6 µM
TGI (NCI-H23 lung): 29.2 µM
TGI (OVCAR-3 ovarian): 19.8 µM
TGI (TK-10 renal): 29 µM
TGI (HOP-18 NSCLC): 27.8 µM
TGI (SK-OV-3 ovarian): 12.5 µM
TGI (RPMI-8226 leukemia): 5.07 µM
TGI (DMS 273 small cell lung): 11.6 µM
TGI (DLD-1 colon): 12.6 µM
TGI (UO-31 renal): 22.6 µM
TGI (RXF 393 renal): 13.3 µM
TGI (KM12 colon): 21.4 µM
TGI (HT29 colon): 28.2 µM
TGI (HL-60(TB) leukemia): 13.5 µM
TGI (SF-295 CNS): 6.16 µM
TGI (NCI-H226 lung): 24.9 µM
TGI (OVCAR-8 ovarian): 27 µM
TGI (MALME-3M melanoma): 24.1 µM
TGI (SF-539 CNS): 6.43 µM
TGI (SN12C renal): 25.4 µM
TGI (K-562 leukemia): 6.56 µM
TGI (LXFL 529 NSCLC): 7.64 µM
TGI (U251 CNS): 11.5 µM
TGI (DMS 114 small cell lung): 19.9 µM
TGI (NCI-H460 lung): 17.5 µM
TGI (SNB-78 CNS): 22.1 µM
